Measured values as given in patent US6482934B1, “Methods and compositions for detecting and treating kidney diseases associated with adhesion of crystals to kidney cells” (ARCH Development Corp., priority 1995, dated 2002).
“Also recorded” adds a separate entry of the source. Counter-ions that a name gives are not always drawn. Like-named read-outs stand apart in the source and are kept apart here.

Assays:
BSC-1 cells [1] = assay: [14C]COM crystal adhesion to BSC-1 cell monolayers; assay type: cell-based, African green monkey; conditions: for Half-maximal concentration / IC50: concentration that inhibited crystal adhesion by 50%; for Half-maximal concentration / Langmuir affinity constant (dissociation constant) / IC50 / Kd: N.I. = noninhibitory; for Langmuir affinity constant (dissociation constant) / Kd: slope of Langmuir isotherm plot of crystal adhesion; for IC50: read-out: Half-maximal concentration; for effect on adhesion of COM crystals: concentrations as high as 1 μM; for Kd: read-out: Langmuir affinity constant (dissociation constant)
Experimental: (§1) Renal epithelial cells of the nontransformed African green monkey line (BSC-1) were used. Cells were grown in Dulbecco-Vogt modified Eagle's medium containing 25 mM glucose (DMEM), 1.6 μM biotin and 1% calf serum at 38° C. in a CO2 incubator. Under these conditions, BSC-1 cells achieved confluence at 10^6 cells per 60-mm plastic dish (Nunc). High-density, quiescent cultures were prepared by plating 2×10^6 cells in a 60-mm dish. The spent medium was changed after 3 days so that there were 3-4×10^6 cells/dish 6 days later. Medium was then aspirated and replaced with fresh medium containing […] and 0.01% calf serum; 3 days later the quiescent cultures were used for study.
(§2) Crystals are sterilized by heating to 180° C. overnight.
(§3) High-density, quiescent cultures of BSC-1 cells, MDCK cells, or Balb/c3T3 fibroblasts are prepared. At the time of assay, the medium is aspirated and replaced with 5 ml of phosphate-buffered saline (PBS) (10 mM Na2PO4, 155 mM NaCl, 5.4 mM KCl, pH 7.4 at 37° C.) to which the compound under investigation is added. […] The culture dishes are gently agitated for 5 seconds to uniformly distribute crystals which subsequently settle to the surface of the cell monolayer under the force of gravity. After two minutes buffer is aspirated and the cells are then washed three times with PBS (5 ml). The cell monolayer is then scraped directly into a scintillation vial containing 6 N HCl (0.5 ml) to which 4.5 ml of Ecoscint (National Diagnostics, E. Palmetto, Fla.) is added, and the amount of radioactivity is measured as described by Riese, et al. (1992).

BSC-1 cells [2] = assay: Adhesion of agent-coated COM crystals to BSC-1 cells; assay type: cell-based, African green monkey; conditions: compared with uncoated control crystals
Experimental: Each tube is then centrifuged at 3000 g for 5 minutes. The supernatant is gently aspirated and replaced with a supersaturated calcium oxalate solution to resuspend the coated crystals. To assure removal of any nonabsorbed compound, crystals are resuspended and washed three times in succession. Cell-associated radioactivity is determined 2 minutes after addition of these coated crystals as described herein.

Balb/c3T3 fibroblasts [3] = assay: Crystal endocytosis by Balb/c3T3 fibroblasts; assay type: cell-based; conditions: COM crystals 200 μg/ml; for effect on crystal uptake by fibroblasts: 10 μg/ml
Experimental: (§4) Balb/c3T3 fibroblasts were grown in DMEM containing 10% calf serum. To prepare high-density, quiescent cultures, 7×10^5 cells were plated per 60-mm dish. Two days later the medium was aspirated and replaced with fresh medium containing 1% calf serum and 1.6 μM biotin; the cells were used one day later when a density of […] was reached.
(§5) At specified times after addition of crystals to high-density, quiescent cultures the medium was aspirated and a solution of crystalline trypsin was used to detach cells which were then inspected under a polarizing microscope. One hundred cells from each culture were counted, and each cell was scored for the presence of one or more internalized crystal(s).

MDCK cells [4] = assay: Crystal endocytosis by MDCK cells; assay type: cell-based, canine; conditions: COM crystals 200 μg/ml; for inhibition of COM crystal endocytosis by MDCK cells: 10 μg/ml
Experimental: (§6) Madin-Darby Canine Kidney (MDCK) cells were grown in DMEM containing 2% calf serum and 1.6 μM biotin as described previously. To prepare high-density, quiescent cultures 2×10^6 cells/60-mm dish were plated in DMEM containing 2% calf serum and 1.6 μM biotin. The next day medium was aspirated and replaced with fresh medium containing 0.5% calf serum and biotin. One day later the cultures were used for study.
as §5

BSC-1 cells [5] = assay: Crystal endocytosis by BSC-1 cells; assay type: cell-based, African green monkey; conditions: for combined inhibitory effects on COM crystal endocytosis: RGDS 10 μg/ml, heparin 5 μg/ml and TGF-β2 2 ng/ml; for combined stimulatory effects on COM crystal endocytosis: ADP 200 μM and EGF 5 ng/ml
Experimental: as §1, §5

Balb/c3T3 fibroblasts [6] = assay: [14C]COM crystal adhesion to 3T3 fibroblasts; assay type: cell-based; conditions: 0.55 μM heparin; COM crystals 200 μg/ml
Experimental: as §4, §2, §3

MDCK cells [7] = assay: [14C]COM crystal adhesion to MDCK cells; assay type: cell-based, canine; conditions: 0.55 μM heparin
Experimental: as §6, §2, §3

BSC-1 cells [8] = assay: Endocytosis of agent-coated COM crystals by BSC-1 cells; assay type: cell-based, African green monkey; conditions: THP 5×10^−8 M; 6×10^−10M in the medium
Excerpt: as §5

| Compound | effect on adhesion of COM crystals to BSC-1 cells (in words) (BSC-1 cells [1]) | adhesion of crystals previously coated with the molecule (BSC-1 cells [2]) | IC50 (BSC-1 cells [1]) [µM] | concentration above which COM crystal adhesion was inhibited (BSC-1 cells [1]) | Kd (BSC-1 cells [1]) [µM] | other results |
| --- | --- | --- | --- | --- | --- | --- |
| CC(=O)NC1C(O)OC(CO)C(OS(=O)(=O)O)C1OC1OC(C(=O)O)=CC(O)C1O (centres unmarked) [4-S] | without effect | – | – | – | – | – |
| Chondroitin sulfate C | – | – | – | – | – | Half-maximal concentration (BSC-1 cells [1]): N.I.; effect on COM crystal adherence (BSC-1 cells [1]; concentrations as high as 37 μM): no effect; Langmuir affinity constant (dissociation constant) (BSC-1 cells [1]): N.I. |
| Polylysine | – | to the same extent as did uncoated crystals | 2.5 | – | – | effect on adhesion of COM crystals (BSC-1 cells [1]): no effect |
| Fibronectin | – | – | – | – | – | effect on crystal uptake by fibroblasts (Balb/c3T3 fibroblasts [3]): did not alter crystal uptake by fibroblasts; inhibition of COM crystal endocytosis by MDCK cells (MDCK cells [4]): 59%; maximal inhibition of COM crystal endocytosis (BSC-1 cells [5]; fibronectin 2.5 μg/ml): 33% |
| arginine-glycine-aspartic acid-serine [RGDS] | – | – | – | – | – | effect on crystal uptake by fibroblasts (Balb/c3T3 fibroblasts [3]): did not alter crystal uptake by fibroblasts; inhibition of COM crystal endocytosis by MDCK cells (MDCK cells [4]): 48%; inhibition of COM crystal endocytosis compared to control (BSC-1 cells [5]; RGDS 5 μg/ml): 30%; combined inhibitory effects on COM crystal endocytosis (BSC-1 cells [5]): not additive; maximal inhibition of COM crystal endocytosis (BSC-1 cells [5]; RGDS at higher concentrations (above 5 μg/ml)): 41% |
| Polyvinyl sulfate | – | – | 0.02 | > 0.1 µM | 0.049 | – |
| Heparan sulfate | prevented binding of COM crystals | – | 0.1 | above 0.8 μM | 0.881 | effect on endocytosis of COM crystals (BSC-1 cells [5]; heparan sulfate 2-25 μg/ml): did not alter endocytosis of COM crystals |
| Hyaluronic acid | prevented binding of COM crystals | – | 0.02 | above 0.01 μM | 0.013 | – |
| heparin | blocked | less than control | 0.015 | – | 0.043 | decrease in adhesion of COM crystals to 3T3 fibroblasts (Balb/c3T3 fibroblasts [6]): 85%; inhibition of COM crystal endocytosis in fibroblasts (Balb/c3T3 fibroblasts [3]; heparin): 24%; inhibition of COM crystal endocytosis in MDCK cells (MDCK cells [4]; heparin): 60%; maximal inhibition of adhesion of COM crystals to MDCK cells (MDCK cells [7]): 89%; combined inhibitory effects on COM crystal endocytosis (BSC-1 cells [5]): not additive; decrease in COM crystal endocytosis compared to control (BSC-1 cells [5]; heparin 2 μg/ml): 36%; effect on COM crystal uptake at higher concentration (BSC-1 cells [5]; heparin as high as 100 μg/ml): did not inhibit uptake further; adhesion of crystals after heparin added later than crystals (BSC-1 cells [1]; heparin 10 μg/ml (0.55 μM) added 1 to 30 minutes after crystals, measured after 60 minutes): appeared to stop immediately; displacement of crystals already bound to cells (BSC-1 cells [1]; heparin 10 μg/ml present for up to an additional 55 minutes): did not appear to displace crystals already bound to cells; decrease in adherence of COM crystals (BSC-1 cells [1]; heparin 18,000 Da at 0.006 μM): 33%; Maximal inhibition of COM crystal adhesion (BSC-1 cells [1]; heparin 18,000 Da at concentrations above 0.028 μM): 95% |
| protamine sulfate | – | – | – | – | – | effect on heparin inhibition of crystal binding, added after heparin (BSC-1 cells [1]; after 30 minutes exposure to heparin): completely reversed inhibition of crystal binding; effect on heparin inhibition of crystal adhesion, added together with heparin (BSC-1 cells [1]; protamine sulfate 100 μg/ml with heparin 10 μg/ml): abolished the polyanion's inhibitory effect; effect on crystal adhesion, alone (BSC-1 cells [1]; protamine sulfate alone): inert |
| CC(=O)NC1C(O)OC(COS(=O)(=O)O)C(O)C1OC1OC(C(=O)O)=CC(O)C1O (centres unmarked) [6-S] | without effect | – | – | – | – | – |
| Uropontin: urinary glycoprotein, inhibitor of COM crystal growth | inhibited binding of COM crystals; also recorded: blocking adhesion of COM crystals to BSC-1 cells | less than control | 0.02 | – | 0.043 | block of COM crystal binding (BSC-1 cells [1]; uropontin 0.1 μM): 73% |
| Polyarginine | – | to the same extent as did uncoated crystals | – | – | – | Half-maximal concentration (BSC-1 cells [1]): N.I.; effect on adhesion of COM crystals (BSC-1 cells [1]): no effect; Langmuir affinity constant (dissociation constant) (BSC-1 cells [1]): N.I. |
| Polyaspartic acid | blocked adherence of COM crystals | less than control | 0.007 | above 0.007 μM | 0.023 | – |
| O=C(O)CC(O)(CC(=O)O)C(=O)O [Sodium citrate] | inhibited binding of COM crystals | – | – | above 250 μM | 431 | IC50 (BSC-1 cells [1]; Chlorocebus sabaeus, BSC-1): 200 µM |
| Dextran sulfate | – | less than control | 0.01 | > 0.01 µM | 0.013 | – |
| Nc1ncnc2c1ncn2[C@@H]1O[C@H](COP(=O)(O)OP(=O)(O)O)[C@@H](O)[C@H]1O [ADP, adenosine diphosphate] | – | – | – | – | – | increase in COM crystal uptake compared to control (BSC-1 cells [5]; ADP 2 μM): 52%; combined stimulatory effects on COM crystal endocytosis (BSC-1 cells [5]): not additive |
| Chondroitin sulfate B | prevented binding of COM crystals | less than control | 0.1 | > 0.4 µM | 0.206 | – |
| Pentosan polysulfate | – | – | 0.02 | above 0.33 μM | 0.131 | – |
| THP: urinary Tamm-Horsfall glycoprotein, most abundant protein in human urine | no effect | – | – | – | – | endocytosis of crystals incubated with THP and added directly without centrifuging (BSC-1 cells [8]): to the same extent as uncoated crystals; decrease in COM crystal endocytosis (BSC-1 cells [5]; THP 5×10−8 M): 34%; decrease in COM crystal endocytosis (BSC-1 cells [5]; THP 10^−8 M): 21%; Half-maximal concentration (BSC-1 cells [1]): N.I.; effect on adhesion of COM crystals to BSC-1 cells (in words) (BSC-1 cells [1]; listed as Tamm-Horsfall glycoprotein): did not; Langmuir affinity constant (dissociation constant) (BSC-1 cells [1]): N.I. |
| Polyglutamic acid | blocked adherence of COM crystals | less than control | 0.01 | > 0.02 µM | 0.026 | – |
| EGF: epidermal growth factor, mitogen | – | – | – | – | – | combined stimulatory effects on COM crystal endocytosis (BSC-1 cells [5]): not additive; increase in COM crystal endocytosis compared to control (BSC-1 cells [5]; EGF 10 ng/ml): 55% |
| albumin | – | to the same extent as did uncoated crystals | – | – | – | – |
| O=C(O)CC(CC(=O)O)(OP(=O)(O)O)C(=O)O [Phosphocitrate] | – | – | 50 | above 50 μM | 43.8 | – |
| CC(=O)NC1C(O)OC(CO)C(O)C1OC1OC(C(=O)O)=CC(O)C1O (centres unmarked) [0-S] | without effect | – | – | – | – | – |
| Chondroitin sulfate A | prevented binding of COM crystals | – | 0.6 | above 1.4 μM | 0.038 | – |
